This is an account of results in paper PMC11590026, “Synthesis, enzyme inhibition, and docking studies of new schiff bases of disalicylic acid methylene-based derivatives as dual-target antibacterial agents” (Frontiers in Chemistry, 2024).

The subject of assay [1] is P. aeruginosa. The assay can be described thus: MIC/MBC assay, twofold serial dilution. It is filed as cell-based, Pseudomonas aeruginosa. Here is the method: (§1) The results of this in vitro assay test are consistent with the findings of the antimicrobial sensitivity test. […] It has lower antimicrobial activity than ciprofloxacin against all pathogens tested.
(§2) The MBC differs from the MIC. […]
(§3) 4.2.2. Minimum inhibitory concentration assay
(§4) In 96-well microtiter plates and […] of fresh bacterial culture of a single McFarland unit overnight, a double serial dilution of each compound […] in sterile standard saline were prepared to every single source well. Ciprofloxacin antibiotic (5 mg / mL - 1) and normal saline were included as standard reference in each assay. The plates were incubated at 37 0C overnight. As an indicator of bacterial growth, […] of p-iodonitrotetrazolium violet (INT) was added to each well and incubated at 37 0C for 30 […]
(§5) min. MIC values are recorded as the lowest concentration of the extract that completely inhibited bacterial growth that is clear well. The colorless tetrazolidium salt acts as an electron accepter and is reduced to a red colored formazan product by biological activity organisms. Where bacterial growth was inhibited, the solution in the well remained clear after incubation with INT. […]

Assay [2] deals with E. coli. The assay can be described thus: MIC/MBC assay, twofold serial dilution. The assay is classed as cell-based, Escherichia coli. The protocol: as §1, §2, §3, §4, §5
The next assay deals with A. flavus. Put plainly: Modified disk diffusion, inhibition zone. The assay is classed as cell-based, Aspergillus flavus. Here is the method: (§6) The antimicrobial effects of the currently synthesized Schiff bases (6a-l) were tested against two Gram-positive bacteria (S. aureus and B. subtilis), two Gram-negative bacteria (E. coli and P. aeruginosa), and two strains of fungus (A. flavus and C. albicans). The modified disk diffusion method ([Alkhaldi et al., 2019]; [Manso et al., 2021]) was used to determine the inhibition zones (IZ, mm/mL) and the minimal inhibitory concentration (MIC, nM). Ciprofloxacin and Fluconazole was used as positive controls. Tables 1–3 display the findings. […]
(§7) incubated at 35-37 °C for 24-48 hours and yeast as Candida albicans (ATCC 7102) incubated at 30 °C for 24-48 hours and, then the diameters of the inhibition zones were measured in millimeters. Standard discs of ciprofloxacin (Antibacterial agent), Fluconazole (Antifungal agent) served as positive controls for antimicrobial activity but filter discs impregnated with 10 µl of solvent (distilled water, chloroform, DMSO) were used as a negative control. Blank paper disks (Schleicher & Schuell, Spain) with a diameter of 8.0 mm were impregnated 10µ of tested concentration of the stock solutions. When a filter paper disc impregnated with a tested chemical is placed on agar the chemical will diffuse from the disc into the agar. This diffusion will place the chemical in the agar only around the disc. […]
On the technique in general: Agar diffusion results depend on both activity and mobility in agar.

In assay [3] the test system is Gram-positive and Gram-negative bacteria. Put plainly: Disk diffusion inhibition zone, all bacterial pathogens tested. The assay is classed as cell-based. The protocol:
The antimicrobial effects of the currently synthesized Schiff bases (6a-l) were tested against two Gram-positive bacteria (S. aureus and B. subtilis), two Gram-negative bacteria (E. coli and P. aeruginosa), and two strains of fungus (A. flavus and C. albicans). The modified disk diffusion method ([Alkhaldi et al., 2019]; [Manso et al., 2021]) was used to determine the inhibition zones (IZ, mm/mL) and the minimal inhibitory concentration (MIC, nM). Ciprofloxacin and Fluconazole was used as positive controls. Tables 1–3 display the findings.

The subject of a further assay is C. albicans. The assay can be described thus: Modified disk diffusion, inhibition zone. It is filed as cell-based, Candida albicans. Here is the method:
as §6, §7

Assay [4] deals with S. aureus. The assay can be described thus: MIC/MBC assay, twofold serial dilution. It is filed as cell-based, Staphylococcus aureus. The protocol:
as §1, §2, §3, §4, §5

The test system of assay [5] is B. subtilis. Put plainly: MIC/MBC assay, twofold serial dilution. It is filed as cell-based, Bacillus subtilis. Here is the method:
as §1, §2, §3, §4, §5

The subject of assay [6] is B. subtilis. Set-up: method as in Al-Wahaibi et al., 2024. The following applies: ref Al-Wahaibi et al., 2024; cited from earlier work.
A further assay addresses Topoisomerase IV. The following applies: earlier work; ref Al-Wahaibi et al., 2024; cited from earlier work.
The test system of assay [7] is S. aureus. Set-up: method as in Al-Wahaibi et al., 2024. Conditions: ref Al-Wahaibi et al., 2024; cited from earlier work.
Assay [8] relates to E. coli. Also noted: method as in Al-Wahaibi et al., 2024. Conditions: ref Al-Wahaibi et al., 2024; cited from earlier work.
Assay [9] concerns P. aeruginosa. Also noted: method as in Al-Wahaibi et al., 2024. Conditions: ref Al-Wahaibi et al., 2024; cited from earlier work.

Converted amounts (≈) assume the structure as drawn. Read-outs that look alike come from different tables or passages of the source.

A word on the MBC: it is the lowest tested concentration that kills the bacteria rather than only halting them. The MIC is the least concentration at which growth counts as inhibited. `O=C(O)c1cn(C2CC2)c2cc(N3CCNCC3)c(F)cc2c1=O` [Ciprofloxacin, reference compound]: the MBC against P. aeruginosa [1] came to 0.09 ± 0.006 µM (≈ 0.0298 µg/mL); in the assay on P. aeruginosa [1] (Pseudomonas aeruginosa, read-out: MBC), 0.09 µM (≈ 0.0298 µg/mL); against E. coli [2], 0.09 ± 0.006 µM (≈ 0.0298 µg/mL); with E. coli [2] (Escherichia coli, read-out: MBC), 0.09 µM (≈ 0.0298 µg/mL); against S. aureus [4], 0.045 ± 0.002 µM (≈ 0.0149 µg/mL); in the assay with S. aureus [4] (Staphylococcus aureus, read-out: MBC), 0.045 µM (≈ 0.0149 µg/mL). The MBC stood at 0.019 ± 0.001 µM (≈ 0.0063 µg/mL) in the assay with B. subtilis [5] and 0.019 µM (≈ 0.0063 µg/mL) with B. subtilis [5] (Bacillus subtilis, read-out: MBC). The MIC was found to be 0.06 ± 0.005 µM (≈ 0.0199 µg/mL) in the assay on P. aeruginosa [1] (Pseudomonas aeruginosa, read-out: MIC); 0.06 ± 0.004 µM (≈ 0.0199 µg/mL) in the assay with E. coli [2] (Escherichia coli, read-out: MIC); 0.03 ± 0.002 µM (≈ 0.00994 µg/mL) in the assay on S. aureus [4]; 0.03 µM (≈ 0.00994 µg/mL) in the assay on S. aureus [4] (Staphylococcus aureus, read-out: MIC); 0.01 ± 0.001 µM (≈ 0.00331 µg/mL) with B. subtilis [5]; 0.01 µM (≈ 0.00331 µg/mL) with B. subtilis [5] (Bacillus subtilis, read-out: MIC). Also, the “Inhibition zone (IZ) diameter” value in the assay on A. flavus and in the assay with C. albicans was “NA (NA: no activity (8 mm))” each time. In addition, the “Inhibition zones (IZ)” value in [3] is on record as 40 mm.

One may read the IC50 as the concentration that inhibits the measured activity by half. `COc1ccccc1/C=N/NC(=O)c1cc(Cc2ccc(O)c(C(=O)N/N=C/c3ccccc3OC)c2)ccc1O` [Compound 5h]: the minimal inhibitory concentration (MIC) in the assay on B. subtilis [6] is 0.050 µg/mL (≈ 0.0905 µM); in the assay on S. aureus [7] it was 0.030 µg/mL (≈ 0.0543 µM); in the assay on E. coli [8], 0.065 µg/mL (≈ 0.118 µM); in the assay with P. aeruginosa [9] it was 0.060 µg/mL (≈ 0.109 µM). Besides, the “Times less potent/effective than ciprofloxacin (MIC)” value in the assay on B. subtilis [6] was “five times less potent than ciprofloxacin”. The IC50 at Topoisomerase IV is 3.5 µM.

`CN(C)c1ccc(/C=N/NC(=O)c2cc(Cc3ccc(O)c(C(=O)N/N=C/c4ccc(N(C)C)cc4)c3)ccc2O)cc1` [Compound 5i]: in the assay with B. subtilis [6], the “Times less potent/effective than ciprofloxacin (MIC)” value is listed as 7 times. For the same compound, the IC50 on Topoisomerase IV is 5.8 µM.
